These results are taken from EP1306084A1, “Compositions for the control of parasitic infestations in fish” (Alpharma AS, priority 1998, dated 1999).

Assay [1] concerns sea lice. In words: Oral treatment (coated feed / Akvaletter) of naturally sea lice infected salmon in minicages (Example 2). Format: in vivo, Atlantic salmon (Salmo salar). The settings on record: fluazuron groups, 9.0-12.0 mg per day, 7 days. The procedure: The treatment dosage was 9 mg hexaflumuron per kg fish per day for 10 days. This is indicated by "Groups/Timepoints" in the figure; • Figure 2 relates to the trial in Example 2 that was carried out on Atlantic salmon (Salmo salar). […] The treatment dosage varied between 3 - 9 mg hexaflumuron and 9- 12 mg fluazuron per kg fish per day for 7 days. This is indicated by "Groups/Timepoints" in the diagram. […] The treated groups are compared to an untreated control group. The treatment dosage was 4 mg hexaflumuron per kg fish per day for 5 days. This is indicated by "Groups/Timepoints" in the figure. Cage 2 = controls, Cage 4-6 = treated groups, 16.6.97 = time point for sea transfer and 5.8.97= controls treated by bathing with deltamethrin; • Figure 4 relates to the trial described in Example 5, which was carried out on sea trout (Salmo trutta). […] The treated groups are compared with an untreated control group. The dosage for oral treatment was 4 mg hexaflumuron per kilo fish per day for 5 days, and 5 ppm hexaflumuron as a 30 minute bath treatment. This is indicated by "Groups/Timepoints" in the figure. Cage 1.4 = Controls, cage 1.3 = Oral treatment, cage 1.2 = Bath treatment. […] The treated groups are compared with an untreated control group, and one group that has been treated orally with teflubenzuron (10 mg/kg of teflubenzuron per kg fish per day for 7 days). The dosage for oral treatment was 5.6 mg hexaflumuron per kg fish per day for 7 days, and 5 ppm hexaflumuron as a 30 minute bath treatment. […] End of treatment: 22.10.97, Sea transfer: 23.10.97. T1 = 3 weeks post end of treatment, T2 = 5 weeks post end of treatment, T3 = 9 weeks post end of treatment, T4 = 12 weeks post end of treatment; • Figure 6 relates to the trial in Example 6 at time points 4-6, with the same trial parameters as for Figure 5. T5 = 15 weeks post end of treatment, T6 = 17 weeks post end of treatment. Cage 3 and 4 were treated by bath with deltamethrin after sea lice counting at T4 (12.01.98); • Figure 7 relates to the trial described in Example 7 where salmon were injected on 17.12.97 with two formulations (groups L and R, respectively) of hexaflumuron and a vaccine formulation without hexaflumuron (control). […] The vaccinated fish was transferred to sea water on 09.01.98; • Figure 8 summarises the trial of Example 8 where salmon smolts were injected with 9 different active substances on 08.07.98. Only results for Moxidectin (Mox.), Lufenuron (Luf.) and hexaflumuron in Apoject 1-Fural (Hex.Apo) and in animal oil (Hex.oil) are shown, and • Figure 9 summarises the trial described in Example 10 where salmon were injected on 03.12.97 with 3 different formulations of hexaflumuron (Hexa 1, Hexa 2 and Hexa 3). The fish were transferred to sea water at T0. […]

For assay [2], the system named is sea lice. In words: Oral treatment in freshwater before sea transfer, sea lice counts after natural infection (Example 4). Conditions: bath treatment, 7 weeks into the trial. The format is in vivo, salmon (Salmo salar). The procedure: (§1) The treatment dosage was 9 mg hexaflumuron per kg fish per day for 10 days. This is indicated by "Groups/Timepoints" in the figure; • Figure 2 relates to the trial in Example 2 that was carried out on Atlantic salmon (Salmo salar). […] The treatment dosage varied between 3 - 9 mg hexaflumuron and 9- 12 mg fluazuron per kg fish per day for 7 days. This is indicated by "Groups/Timepoints" in the diagram. […] The treated groups are compared to an untreated control group. The treatment dosage was 4 mg hexaflumuron per kg fish per day for 5 days. This is indicated by "Groups/Timepoints" in the figure. Cage 2 = controls, Cage 4-6 = treated groups, 16.6.97 = time point for sea transfer and 5.8.97= controls treated by bathing with deltamethrin; • Figure 4 relates to the trial described in Example 5, which was carried out on sea trout (Salmo trutta). […] The treated groups are compared with an untreated control group. The dosage for oral treatment was 4 mg hexaflumuron per kilo fish per day for 5 days, and 5 ppm hexaflumuron as a 30 minute bath treatment. This is indicated by "Groups/Timepoints" in the figure. Cage 1.4 = Controls, cage 1.3 = Oral treatment, cage 1.2 = Bath treatment. […] The treated groups are compared with an untreated control group, and one group that has been treated orally with teflubenzuron (10 mg/kg of teflubenzuron per kg fish per day for 7 days). The dosage for oral treatment was 5.6 mg hexaflumuron per kg fish per day for 7 days, and 5 ppm hexaflumuron as a 30 minute bath treatment. […] End of treatment: 22.10.97, Sea transfer: 23.10.97. […]
About 2,500 salmon (Salmo salar) of average weight 42 grams were treated orally with a daily dosage of 4 mg hexaflumuron per kilo fish for 5 days. […] The number of lice on 10 fish from each cage were counted every third week to check if there was any difference in the number of lice in the cages. […]

Assay [3] relates to sea lice. The assay is described as follows: Oral or bath treatment in freshwater before sea transfer, sea lice counts after natural infection (Example 5). Format: in vivo, sea trout (Salmo trutta). The settings on record: bath treatment 2, 5 and 8 weeks after sea transfer. The procedure:
as §1, with “23.10.97. T1 = 3 weeks post end of treatment, T2 = 5 weeks post end of treatment, T3 = 9 weeks post end of treatment, T4 = 12 weeks post end of treatment; • Figure 6 relates to the trial in Example 6 at time points 4-6, with the same trial parameters as for Figure 5.” for “23.10.97.”
About 300 sea trout (Salmo trutta) of an average weight of 160 grams were divided into three groups of 100 fish each. […] Lice from 6-10 fish from each cage were counted every third week to assess whether there was any difference in the number of lice between the cages. […]

Assay [4] has as its system sea lice. The assay is described as follows: Oral or bath treatment in freshwater before sea transfer, sea lice counts after natural infestation (Example 6). The format is in vivo, Atlantic salmon (Salmo salar). The procedure:
(§2) The treatment dosage was 9 mg hexaflumuron per kg fish per day for 10 days. This is indicated by "Groups/Timepoints" in the figure; • Figure 2 relates to the trial in Example 2 that was carried out on Atlantic salmon (Salmo salar). […] The treatment dosage varied between 3 - 9 mg hexaflumuron and 9- 12 mg fluazuron per kg fish per day for 7 days. This is indicated by "Groups/Timepoints" in the diagram. […] The treated groups are compared to an untreated control group. The treatment dosage was 4 mg hexaflumuron per kg fish per day for 5 days. This is indicated by "Groups/Timepoints" in the figure. Cage 2 = controls, Cage 4-6 = treated groups, 16.6.97 = time point for sea transfer and 5.8.97= controls treated by bathing with deltamethrin; • Figure 4 relates to the trial described in Example 5, which was carried out on sea trout (Salmo trutta). […] The treated groups are compared with an untreated control group. The dosage for oral treatment was 4 mg hexaflumuron per kilo fish per day for 5 days, and 5 ppm hexaflumuron as a 30 minute bath treatment. This is indicated by "Groups/Timepoints" in the figure. Cage 1.4 = Controls, cage 1.3 = Oral treatment, cage 1.2 = Bath treatment. […] The treated groups are compared with an untreated control group, and one group that has been treated orally with teflubenzuron (10 mg/kg of teflubenzuron per kg fish per day for 7 days). The dosage for oral treatment was 5.6 mg hexaflumuron per kg fish per day for 7 days, and 5 ppm hexaflumuron as a 30 minute bath treatment. […] End of treatment: 22.10.97, Sea transfer: 23.10.97. T1 = 3 weeks post end of treatment, T2 = 5 weeks post end of treatment, T3 = 9 weeks post end of treatment, T4 = 12 weeks post end of treatment; • Figure 6 relates to the trial in Example 6 at time points 4-6, with the same trial parameters as for Figure 5. T5 = 15 weeks post end of treatment, T6 = 17 weeks post end of treatment. Cage 3 and 4 were treated by bath with deltamethrin after sea lice counting at T4 (12.01.98); • Figure 7 relates to the trial described in Example 7 where salmon were injected on 17.12.97 with two formulations (groups L and R, respectively) of hexaflumuron and a vaccine formulation without hexaflumuron (control). […] The vaccinated fish was transferred to sea water on 09.01.98; • Figure 8 summarises the trial of Example 8 where salmon smolts were injected with 9 different active substances on 08.07.98. Only results for Moxidectin (Mox.), Lufenuron (Luf.) and hexaflumuron in Apoject 1-Fural (Hex.Apo) and in animal oil (Hex.oil) are shown, and • Figure 9 summarises the trial described in Example 10 where salmon were injected on 03.12.97 with 3 different formulations of hexaflumuron (Hexa 1, Hexa 2 and Hexa 3). The fish were transferred to sea water at T0.
About 400 Atlantic salmon (Salmo salar) of an average weight of 80 grams were divided into four groups of 100 fish in each. One group was given an oral treatment of 5.6 mg hexaflumuron per kg fish each day for 7 days before sea transfer. Group two was given a bath treatment with a dosage of 5 ppm (mg/l) hexaflumuron for 30 minutes with a formulation containing 10% hexaflumuron. Group three was given oral treatment with a daily dosage of 10 mg teflubenzuron per kg fish for 7 days, while the last group remained untreated. […] Every third week, lice from 10 fish in each cage were counted to assess if there was a difference in the number of lice between the cages. […]

The test system of assay [5] is sea lice. The assay is described as follows: Injection of 9 active substances, protective effect against sea lice (Example 8). Format: in vivo, salmon smolt. How it is done: as §2
In this trial 9 different active substances were tested for protective effect against sea lice. 1,200 salmon smolt were, prior the start of the trial, vaccinated with a commercial vaccine, ALPHA JECT 5100.
One week after sea water transfer the salmon was divided into 12 groups and injected with different formulations of the 9 different active substances. In parallel with the 12 groups, a 13th group comprising 50 fish of the same origin and size was injected with a saline (PBS) solution without active substance. This group served as negative control/reference group in respect of sea lice infestations. The groups were marked by fin cutting and distributed randomly into 3 cages.
The active substances that were used as injection were hexaflumuron, buprofezin, diflubenzuron, fluazuron, lufenuron, ivermectin, doramectin, moxidectin and milbemycin oxime, respectively. All the fish were injected with 0.2 ml of the various injection formulations. Hexaflumuron, buprofezin, fluazuron, lufenuron and diflubenzuron were administered at a dosage of about 50 mg/kg whereas ivermectin, doramectin and moxidectin were administered at a dosage of 0.2 mg/kg (recommended dosage for mammals). […]

Turning to `O=C(NC(=O)c1c(F)cccc1F)Nc1ccc(Cl)c(Oc2ncc(C(F)(F)F)cc2Cl)c1` [fluazuron, reference compound], the “reduction as compared to the control group” value in the assay on sea lice [1] was 25%.
`CC1(C)[C@H](C(=O)O[C@H](C#N)c2cccc(Oc3ccccc3)c2)[C@@H]1C=C(Br)Br` [deltamethrin, reference compound]: in the assay with sea lice [2], the “bath treatment of control fish to reduce the number of pre-adult lice” value is listed as “successful”. For the same molecule, the “bath treatment of control fish, number of lice” value in the assay on sea lice [3] was “successful”. Moreover, in the assay on sea lice [4] (bath treatment after T4), the “bath treatment of control and teflubenzuron groups, number of lice” value is “successful”.
Take `O=C(NC(=O)c1c(F)cccc1F)Nc1ccc(Cl)cc1` [diflubenzuron, reference compound]: the “protection against new establishments by sea lice” value with sea lice [5] (summary statement referring to Example 8) is listed as “do not protect”.
Consider `O=C(NC(=O)c1c(F)cccc1F)Nc1cc(Cl)c(F)c(Cl)c1F` [teflubenzuron], for which the “number of lice compared with untreated control group” value in the assay on sea lice [4] (oral 10 mg teflubenzuron per kg fish daily for 7 days, at each assessment) is given as “same number of lice as the untreated control group”. For the same molecule, the “protection against new establishments by sea lice” value with sea lice [4] (summary statement referring to Example 6) is “do not protect”.
With `O=C(NC(=O)c1c(F)cccc1F)Nc1cc(Cl)c(OC(F)(F)C(F)C(F)(F)F)cc1Cl` (centres unmarked) [lufenuron, reference compound], the “protection against sea lice” value in the assay with sea lice [5] (T2, 40 days after injection, hexaflumuron, lufenuron about 50 mg/kg, moxidectin 0.2 mg/kg) is reported as “showed protection”. In the assay with sea lice [5] (T3, 70 days after injection, formulated in Apoject 1-Fural, about 50 mg/kg, control group 5.6), this molecule registered a lice on average of 0.6. In the assay with sea lice [5] (lufenuron in Apoject 1-Fural, about 50 mg/kg), the “good protection against lice until T5, time after injection” value stood at 128 days. Moreover, the protection following injection entry in the assay with sea lice [5] (other active substances, summary of trial) is “good protection for an extended period of time”.
